The source of these data is patent EP4549575A1 (priority 2023, dated 2025).

Entries after “also recorded” stand apart in the source; their conditions may differ. Square brackets hold non-standard residues; d marks the D form. Ends that are not written are not given here. Peptide text beside a SMILES is read from it. * marks the point of attachment. hCys = N[C@@H](CCS)C(=O)O; βAla = NCCC(=O)O; CF3 = FC(F)(F)*

A word on the EC99: it is the point of the concentration-response curve where the effect stands at 99%. A low value points to an effect from little substance.

Series [1] has as its system P. infestans.
The next series relates to Saccharomyces cerevisiae. Nature of the series: Specificity: growth in liquid culture (OD620). Type of series: cell-based. The conditions noted are these: 200 µM; YEPD medium; measured hourly up to 5 h. The procedure:
(§1) The specificity of antimicrobial molecules is a key aspect in their development, as good degrees of specificity result in the absence of toxicity to other organisms in the environment such as animals, plants, fungi, bacteria, yeasts, livestock and humans. Therefore, initial assays were carried out to assess the toxicity profiles of CP20 and CP32, similar to those reported in Colombo et al.. For this purpose, the two cyclic peptides were added at a concentration of 200 µM to liquid cultures of the following microorganism species: • (i) Agrobacterium tumefaciens GV3101, (ii) Escherichia coli DH5α and (iii) Saccharomyces cerevisiae. The culture media used were respectively Luria-Bertani (LB) for the bacterial cultures, while Yeast Extract Peptone Dextrose (YEPD) medium was used for S. cerevisiae. Growth was measured hourly (up to 5 h) using a spectrophotometer (OD620).

The subject of the next series is Escherichia coli DH5α. In words: Specificity: growth in liquid culture (OD620). The format is cell-based. The note with it: 200 µM; LB medium; measured hourly up to 5 h. The procedure:
as §1

Series [2] deals with P. infestans. Type of series: in vivo. The conditions noted are these: tomato (Solanum lycopersicum, cv. Marmande) leaf discs; co-inoculation with sporangia; 5-7 days; reference concentration 200 µM.
Series [3] deals with P. infestans. The format is cell-based. The note with it: for PPI (%) ± Std. Dev. / PPI: 200 µM, P. infestans mycelium; for PPI (%) ± Std. Dev.: peptidomimetics; for PPI: solid medium, linear vs cyclic peptides (Figure 8); for PPI (%) mycelium: Ala-scan of Ac-LP20 and CP20-Met-Ala.
The test system of series [4] is pronase. In words: Stability towards proteolysis (pronase, LC-MS). Type of series: in vitro ADME, Streptomyces griseus. The conditions noted are these: peptide 200 µM, protease 5 µg/mL, 37°C, pH 7.5; for stability against proteolysis: 0-2 h. The procedure: The evaluation of the stability of CP20 and Ac-LP20 towards proteolysis was tested at a peptide concentration of 200 µM using pronase (commercially available mixture of proteases isolated from the extracellular fluid of Streptomyces griseus, 2.5 µg/mg). Another peptide was added to this analysis, namely LP20 (without N-terminal acetylation), as it is easier to synthesize and to also assess the influence of N-terminal acetylation on the stability of LP20. Each peptide was tested in the presence of the protease (5 µg/mL) at 37°C in a buffer solution (50 mM Tris, 10 mM CaCl2, 150 mM NaCl, 0.05 % (w/v) Brij 35, pH 7.5) and its stability monitored by liquid chromatography coupled to mass spectrometry (LC-MS) at different time intervals (t=0 min, 10 min, 30 min, 1 h, 2 h). To stop enzyme activity, a small amount of the solution (60 µL) was transferred to an HPLC vial containing 6 µL of a 10% TFA solution at these different time points.

Series [5] relates to pronase. Nature of the series: pronase (commercially available mixture of proteases isolated from the extracellular fluid of Streptomyces griseus, 2.5 µg/mg) in buffer solution (50 mM Tris, 10 mM CaCl2, 150 mM NaCl, 0.05 % (w/v) Br). The note with it: 37°C, up to 2 h.
Series [6] is described as follows: Conformational studies based on circular dichroism. Type of series: physicochemical. How it is done:
Conformational studies based on circular dichroism were performed under different conditions, such as: • 10 mM phosphate buffer, pH 7 • MES buffer 10 mM, pH 6 • Buffer acetate 10 mM, pH 5 • Phosphate buffer 10 mM/TFE (1:1) • TFE (trifluoroethanol)
Conformational studies based on circular dichroism were performed under different conditions such as: • 10 mM phosphate buffer, pH7 • Phosphate buffer 10mM/TFE, pH7 (1:1) • TFE (trifluoroethanol)
Conformational studies based on circular dichroism were performed under different conditions, such as: • 10 mM phosphate buffer, pH7 • MES buffer 10 mM, pH6 • Buffer acetate 10 mM, pH5 • Phosphate buffer 10 mM/TFE, pH7 (1:1) • TFE (trifluoroethanol)
Conformational studies based on circular dichroism were performed under different conditions, such as: • 10 mM phosphate buffer, pH7 • 10mM phosphate buffer/TFE (1:1) • TFE (trifluoroethanol)
(Circular dichroism is widely used to follow secondary structure.)

Series [7] is described as follows: Chemical-physical properties (isoelectric point, net charge, solubility in water). The format is physicochemical. The note with it: for net charge: at pH 7.
Setting [8] is: pH 7-TFE: phosphate buffer 10 mM/TFE (1:1).

Compound `CSCC[C@@H]1NC(=O)[C@H](Cc2c[nH]c3ccccc23)NC(=O)[C@H](CCCNC(=N)N)NC(=O)CCNC(=O)[C@H](CCCNC(=N)N)NC(=O)[C@H](CCCNC(=N)N)NC(=O)[C@H](Cc2ccc(O)cc2)NC(=O)[C@H](C(C)C)NC(=O)[C@H](CC(C)C)NC1=O` [CP20, βA-R-W-M-L-V-Y-R-R] (cyclo(LVYRR[βAla]RWM)) came in with an EC99 with P. infestans [1] (from PGI values at 0.02-200 µM, three-parameter logistic model) of 68.37 µM. In the series on P. infestans [1] (peptide 200 µM, Pea Broth, sporangia, OD620, 72 h, vs untreated control), the “PGI (%) ± dev. std (Liquid medium)” value is 86.19 ± 8.66 (b) %. Besides, in the series with Saccharomyces cerevisiae, the “growth inhibition (OD620)” value is on record as “no growth inhibition”. Further, the “bacterial growth (OD620)” value with Escherichia coli DH5α is “no alteration in bacterial growth”. Further, the “Percentage Protection Index for the leaf discs (PPI), reduction in symptoms” value in the series on P. infestans [2] was 88.64%. Further, in the series with P. infestans [3], the “PPI (%) ± Std. Dev.” value is given as 92.39 ± 2.17 (a) % and the PPI is 89.53%. For the same compound, the “PPI (%) ± dev. std (Solid medium)” value in the series on P. infestans [3] (peptide 200 µM, PAM agar, mycelium plug, 3-4 days, vs untreated control) is listed as 88.99 ± 7.56 (b) %. For the same compound, in the series with pronase [4], the “time after which cleavage was observed in the presence of protease” value stood at 2 h and the stability against proteolysis result was “good stability against proteolysis”.
Consider Ac-[βAla]RWMLVYRR-NH2, for which the cleaved bond entry in the series on pronase [5] is recorded as “Met4-Leu, first_seen, t0; also recorded: Arg2-Trp3, 10 min; also recorded: Trp3-Met4, 10 min”.
Compound `CC(C)C[C@H](NC(=O)[C@H](CCCNC(=N)N)NC(=O)CNC(=O)CCN)C(=O)N[C@@H](CCCNC(=N)N)C(=O)N[C@@H](Cc1c[nH]c2ccccc12)C(=O)N[C@@H](CC(C)C)C(=O)N[C@@H](CCCNC(=N)N)C(=O)N[C@H](C(N)=O)C(C)C` [LP32] (H-[βAla]GRLRWLRV-NH2) registered a PPI in the series with P. infestans [3] of 76.97%. For the same compound, in the series on pronase [4], the “time of total proteolysis of the peptide” value worked out at 10 min and the stability against proteolysis result is recorded as “low stability”.
Take `CSCC[C@H](NC(=O)[C@H](Cc1c[nH]c2ccccc12)NC(=O)[C@H](CCCNC(=N)N)NC(=O)CCN)C(=O)N[C@@H](CC(C)C)C(=O)N[C@H](C(=O)N[C@@H](Cc1ccc(O)cc1)C(=O)N[C@@H](CCCNC(=N)N)C(=O)N[C@@H](CCCNC(=N)N)C(N)=O)C(C)C` [LP20] (H-[βAla]RWMLVYRR-NH2): in the series with P. infestans [3], the PPI came to 72.78%. In the series with pronase [4], the “time of total proteolysis of the peptide” value came out at 10 min and the stability against proteolysis entry is recorded as “Low stability”.
For `CSCC[C@H](NC(=O)[C@H](Cc1c[nH]c2ccccc12)NC(=O)[C@H](CCCNC(=N)N)NC(=O)CCNC(C)=O)C(=O)N[C@@H](CC(C)C)C(=O)N[C@H](C(=O)N[C@@H](Cc1ccc(O)cc1)C(=O)N[C@@H](CCCNC(=N)N)C(=O)N[C@@H](CCCNC(=N)N)C(N)=O)C(C)C` [Ac-LP20, Ac-βA -R-W-M-L-V-Y-R-R-CONH2] (Ac-[βAla]RWMLVYRR-NH2), in series [6] (10 mM phosphate buffer, pH 7), the “Disordered (%)” value was 37%, the “Helixes (%)” value is given as 5%, the “Sheets (%)” value is listed as 36% and the “Turns (%)” value stood at 22%. In series [6] (MES buffer 10 mM, pH 6), the “Disordered (%)” value was determined as 33%, the “Helixes (%)” value was 6%, the “Sheets (%)” value stood at 40% and the “Turns (%)” value was determined as 21%. Besides, in series [6] (TFE (trifluoroethanol)), the “Disordered (%)” value came out at 31%, the “Helixes (%)” value is recorded as 19%, the “Sheets (%)” value is listed as 27% and the “Turns (%)” value is 23%. In series [6] (acetate buffer 10 mM, pH 5), the “Disordered (%)” value was 36%, the “Helixes (%)” value was found to be 7%, the “Sheets (%)” value was 35% and the “Turns (%)” value came out at 22%. For the same compound, in [6] (setting [8]), the “Disordered (%)” value came out at 29%, the “Helixes (%)” value amounted to 18%, the “Sheets (%)” value is 29% and the “Turns (%)” value worked out at 24%. In [7], the isoelectric point came out at 12.4 pH, the net charge entry is “+3” and the solubility in water entry is “good solubility in water”. For the same compound, the “PPI (%) mycelium” value in the series with P. infestans [3] (P. infestans mycelium in vitro) amounted to 78.80 ± 4.07%. In the series on pronase [4], the “time of total proteolysis of the peptide” value is listed as 10 min and the stability against proteolysis result was “Low stability”.
Ac-[βAla]GRLRWLRV-NH2: the cleaved bond result with pronase [5] is recorded as “Trp-Leu7, 10 minutes later; also recorded: Leu4-Arg5, 10 min; also recorded: Arg5-Trp, 10 min; also recorded: Leu7-Arg8, 10 min; also recorded: Arg8-Val, 10 min”.
For [βAla]GRLRWLRV [CP32], in the series on pronase [5], the cleaved bond result is listed as “βAla-Gly, first_seen, After mixing protease with peptide solution; also recorded: Leu7-Arg8, first_seen, After mixing protease with peptide solution; also recorded: Arg8-Val; also recorded: Leu4-Arg5, 10 minutes; also recorded: Arg5-Trp, 10 minutes; also recorded: Trp-Leu7, 10 minutes”.
As to `CC(=O)NCCC(=O)NCC(=O)N[C@@H](CCCNC(=N)N)C(=O)N[C@@H](CC(C)C)C(=O)N[C@@H](CCCNC(=N)N)C(=O)N[C@@H](Cc1c[nH]c2ccccc12)C(=O)N[C@@H](CC(C)C)C(=O)N[C@@H](CCCNC(=N)N)C(=O)N[C@H](C(N)=O)C(C)C` [Ac-LP32, Ac-βA -G-R-L-R-W-L-R-V-CONH2] (Ac-[βAla]GRLRWLRV-NH2), in series [6] (10 mM phosphate buffer, pH 7), the “Disordered (%)” value came out at 44%, the “Helixes (%)” value was 5%, the “Sheets (%)” value is 33% and the “Turns (%)” value was found to be 18%. In [6] (TFE (trifluoroethanol)), the “Disordered (%)” value amounted to 51%, the “Helixes (%)” value stood at 5%, the “Sheets (%)” value is recorded as 30% and the “Turns (%)” value was 14%. Further, in series [6] (setting [8]), the “Disordered (%)” value was 47%, the “Helixes (%)” value worked out at 5%, the “Sheets (%)” value is listed as 30% and the “Turns (%)” value was found to be 18%. Further, in series [7], the isoelectric point is 14 pH, the net charge entry is “+3” and the solubility in water result is “good solubility in water”. Moreover, in the series with P. infestans [3] (Ala-scan of Ac-LP32, P. infestans mycelium in vitro), the “PPI (%) micelio” value was determined as 70.23 ± 3.84%. Also, in the series with pronase [4], the “time of total proteolysis of the peptide” value worked out at 10 min and the stability against proteolysis result is recorded as “low stability”.
[βAla]GRLRWLRV [LP32]: the cleaved bond entry with pronase [5] is reported as “Trp-Leu7, first_seen, immediately, after mixing protease with peptide solution; also recorded: Leu4-Arg5, 10 min; also recorded: Arg5-Trp, 10 min; also recorded: Leu7-Arg8, 10 min; also recorded: Arg8-Val, 10 min”.
The same measure, in the same setting: next, [βAla]RWMLVYRR [LP20]: “Met4-Leu, first_seen, t0; also recorded: Arg2-Trp3, 10 min; also recorded: Trp3-Met4, 10 min”.
On to `CSCC[C@H](NC(=O)[C@H](Cc1c[nH]c2ccccc12)NC(=O)[C@H](CCCNC(=N)N)NC(=O)CCNC(C)=O)C(=O)N[C@@H](CC(C)C)C(=O)N[C@H](C(=O)N[C@@H](Cc1ccc(O)cc1)C(=O)N[C@@H](CCCNC(=N)N)C(=O)N[C@@H](C)C(N)=O)C(C)C` [Ac-LP20-Ala9, Ac-βA-RWMLVYRA-CONH2] (Ac-[βAla]RWMLVYRA-NH2), for which the “PPI (%) mycelium” value in the series on P. infestans [3] (P. infestans mycelium in vitro) amounted to 10.57 ± 9.49%.
Consider `CC(C)C[C@H](NC(=O)[C@H](CCSC(F)(F)F)NC(=O)[C@H](Cc1c[nH]c2ccccc12)NC(=O)[C@H](CCCNC(=N)N)NC(=O)CCN)C(=O)N[C@H](C(=O)N[C@@H](Cc1ccc(O)cc1)C(=O)N[C@@H](CCCNC(=N)N)C(=O)N[C@@H](CCCNC(=N)N)C(N)=O)C(C)C` [LR131, H2N-βA-RW-MCF3-LVYRR-CONH2] (H-[βAla]RW[hCys](CF3)LVYRR-NH2), for which the “PPI (%) ± Std. Dev.” value in the series with P. infestans [3] was 85.32 ± 5.19 (b) %.
[βAla]RWMLVYRR [CP20]: the cleaved bond entry in the series with pronase [5] is “Arg8-Arg9, 2 hours; also recorded: Met4-Leu, 2 hours”.
